Legend:
[1] = system: isolated CB-CSN preparations; assay: hypoxia-induced CSN activity in isolated superfused CB-CSN preparation; set-up: species or system C57B1/6J (WT) mice; conditions: effect of leptin
Text: SKF and 2-APB data were pooled, *p<0.05.
Leptin and carotid body function CBs are major peripheral O2 sensors, which initiate chemosensory inputs in the CSN to the respiratory centers via nucleus solitarius to evoke acute hyperventilation, and the rostral ventrolateral medulla presympathetic neurons to stimulate SNS activity. CB plays critical roles in the development of hypertension during chronic intermittent hypoxia (CIH); and the sympatho-excitation and destabilization of breathing during heart failure. However, the connection between CB and the obesity-associated hypertension and respiratory instability has not been clearly established. […] The effect of leptin on isolated CB-CSN preparations from C57B1/6J (WT) mice was studied.

Trpm7 promoter = Trpm7 promoter methylation by bisulfite sequencing in PC12^LEPRb cells; type: cell-based; conditions: leptin exposure
Method: FIG. 8A-8C illustrates exposure of leptin to Leprb-expressing PC12^LEPRb cells increased Trpm7 promoter activity and gene transcription. (A) PC12^LEPRb cells transfected with either pEZX-Luc-vector (empty, no insert) or pEZX-Luc-Trpm7 (promoter insert) were exposed to 1 ng/ml leptin for 48 hr prior to measurement of luciferase activity. B and C) Gene expression and promoter methylation of Trpm7 in cells exposed to leptin or 5-aza-dC for 48 hr. Trpm7 mRNA level was quantitated by qPCR. Methylation status of CpG sites in Trpm7 promoter were determined by bisulfite sequencing. A total of 40 CpG sites per clone and 6 individual clones for each treatment group were sequenced. Each row of circles represented an individual clone. Putative TF binding sites such as STAT3 and NFkB were shown in scale in Trpm7 promoter. TSS: transcription start site. Boxed regions highlight the CpG sites showing differential methylation in cells exposed to leptin or 5-aza-dC. (p<0.05). Values were mean±SD.
Leptin can regulate gene transcription by binding to ObRb to activate Janus kinase 2/signal transducers and activator of transcription 3 (JAK2/STAT3) as well as ERK1/2 and PI3K pathways (FIG. 7), which are known to regulate a wide variety of genes. To examine the possible regulation of Trpm7 transcription by leptin, we searched the Trpm7 promoter sequence for potential binding sites for transcription factors (TFs). […]

C57BL/6J mice [2] = assay: minute ventilation and hypoxic ventilatory response (HVR) in awake lean mice; type: in vivo, mouse
Method: (§1) Leptin increases the HVR in lean mice. Minute ventilation (VE) was measured at normoxic conditions and during 3-5 min exposure to 10% O2 in awake lean male C57BL/6J mice, n=4, at baseline and during leptin administration (30 μg/day for 3 days via a subcutaneous osmotic pump). Serum leptin levels increased from 0.8±0.2 ng/ml to 33.2±1.9 ng/ml, which was similar to previously reported in DIO mice and obese humans, and then returned to the baseline. Mice decreased food intake and lost weight. Leptin increased VE at baseline as a result of an increase in the metabolic rate (FIG. 10). Leptin increased the HVR by greater than 60%.
Trpm7 inhibition prevents effects of leptin on the HVR. […] Male C57BL/6J mice (n=2) were treated with leptin for 3 days as described above. After 5 day recovery, leptin and a TRPM7 blocker NS8593 (10 mg/kg/day) were administered subcutaneously via an osmotic pump for 3 days. Mice reduced food intake and lost weight with leptin, regardless of the TRPM7 inhibitor.

[3] = serum leptin levels during leptin administration; type: in vivo, mouse; conditions: leptin 30 μg/day for 3 days, subcutaneous osmotic pump
Method: as §1

C57BL/6J mice [4] = assay: telemetric blood pressure in mice, leptin-induced hypertension; type: in vivo, mouse
Method: Leptin signals in the CB to increase blood pressure. Male C57BL/6J mice, n=6 housed in a 12 hr light/dark cycle underwent telemetry implantation (Data Sciences) in the left femoral artery as we have described. […] After 4 day recovery mice were treated with vehicle (saline) regaining weight. On Day 17th of the protocol, carotid sinus nerve dissection (CSND, CB denervation) was performed bilaterally. After 1 week recovery, leptin and vehicle infusions were repeated. […] In contrast, CB denervation greatly modified cardiovascular effects of leptin. Indeed, in mice with intact carotid bodies leptin increased mean arterial pressure by 13 mm Hg during the day and by 16 mm Hg at night (FIG. 16A). […] Thus, leptin increases blood pressure acting in the CB.
FTY720 abolishes leptin-induced hypertension. There are multiple TRPM7 inhibitors available. We used a potent TRPM7 inhibitor FTY720 for several reasons. FTY720 is a novel immunomodulator and a structural homolog of shingosine-1-phosphate (S1P) blocking S1P effects in many diseases, including atherosclerosis, cancer, asthma, autoimmune diseases and acute lung injury. First, FTY270 has already been approved by FDA for multiple sclerosis (fingolimod). […] The experiment was performed in lean (24-26 g) C57BL/6J mice (n=5). Telemetry for continuous blood pressure recording was inserted. After 5 day recovery, mice were treated with leptin for 3 days as above. The pump was removed. After 7 day recovery, leptin was reinfused as above, but FTY720 was infused SC simultaneously at 0.1 mg/day (approximately 3 mg/kg/day).
Obesity leads to cardiovascular morbidity and mortality acting via multiple mechanisms including hypertension and obstructive sleep apnea. High levels of leptin have been associated with both conditions. The carotid bodies (CB) express leptin receptor (LepR), but the mechanism of leptin in CB is unknown. […] (CSND). In mice with intact CB, leptin increased mean arterial pressure by 13 mm Hg during the day and by 16 mm Hg at night (p=0.003 for the effect of leptin). […] Leptin receptor expression in carotid bodies of leptin receptor deficient db/db mice led to the same effect (n=6, p<0.05). […] Finally, the inventors tested the effect of a Trpm7 inhibitor on leptin-induced hypertension. The inventors performed blood pressure monitoring in male C57BL/6J mice (n=5˜9) at baseline, during leptin infusion with or without Trpm7 inhibitor, FTY720 (3 mg/kg/day, sc, n=5) for 24 hrs. […] The inventors conclude that leptin increases blood pressure acting in the CB via the Trpm7 channel.

[5] = leptin infusion for 3 days, intact carotid bodies

For leptin: an adipocyte-produced hormone, the “hypoxia-induced CSN activity” value [1] was “significantly augmented”, the “hypoxia-induced CSN activity” value ([1]; listed as Leptin) was “augments” and the “methylation status of Trpm7 promoter” value (Trpm7 promoter) was “CpG site-specific demethylation”. For the same substance, the body weight (C57BL/6J mice [2]; leptin 30 μg/day for 3 days) was “lost weight”, the food intake (C57BL/6J mice [2]; leptin 30 μg/day for 3 days) was “decreased” and the “increase of the HVR” value (C57BL/6J mice [2]; leptin 30 μg/day for 3 days, subcutaneous osmotic pump, 10% O2) was “greater than 60%”. For the same substance, the “hypoxic ventilatory response (HVR), in words” value (C57BL/6J mice [2]; leptin infusion) was “increased”, the “minute ventilation (VE) at baseline” value (C57BL/6J mice [2]; leptin infusion, normoxic) was “increased” and the serum leptin levels [3] was 33.2 ± 1.9 ng/mL. For the same substance, the heart rate (C57BL/6J mice [4]; leptin) was “increases”, the “mean arterial pressure, in words” value (C57BL/6J mice [4]; leptin) was “increases” and the “increase of mean arterial pressure at night” value (C57BL/6J mice [4]; [5]) was 16 mm Hg. For the same substance, the “increase of mean arterial pressure during the day” value (C57BL/6J mice [4]; [5]) was 13 mm Hg.
